Test results reported in ChEMBL document CHEMBL1156891, “Pyrrolidine amides of pyrazolodihydropyrimidines as potent and selective KV1.5 blockers” (Bioorg Med Chem Lett, 2010).

Experiments:
[1] = molecular target: Potassium voltage-gated channel subfamily A member 5 (Homo sapiens, UniProt P22460); experiment: Inhibition of human Kv1.5 channel expressed in mouse L929 cells; type: cell-based; conditions: for inhibition: concentration not given here
[2] = system: Oryctolagus cuniculus; experiment: Prolongation of atrial effective refractory period in rabbit at 0.3 mg/kg, iv relative to vehicle control; type: functional, Cardiac atrium
[3] = system: Oryctolagus cuniculus; experiment: Prolongation of atrial effective refractory period in rabbit at 1 mg/kg, iv relative to vehicle control; type: functional, Cardiac atrium
[4] = system: Oryctolagus cuniculus; experiment: Prolongation of atrial effective refractory period in rabbit at 3 mg/kg, iv relative to vehicle control; type: functional, Cardiac atrium
[5] = system: Oryctolagus cuniculus; experiment: Prolongation of atrial effective refractory period in rabbit at 10 mg/kg, iv relative to vehicle control; type: functional, Cardiac atrium
[6] = system: Oryctolagus cuniculus; experiment: Plasma concentration in rabbit at 10 mg/kg, iv; type: ADME, organism-based; design: dose 10 mg/kg, route intravenous; conditions: in vivo
[7] = Fraction unbound in rabbit plasma at 10 mg/kg, iv; type: ADME, organism-based, Oryctolagus cuniculus; design: dose 10 mg/kg, route intravenous
[8] = Oral bioavailability in rat at 20 µmol/kg, po; conditions: in vivo
[9] = Oral bioavailability in dog at 20 µmol/kg, po; conditions: in vivo
[10] = Clearance in rat at 10 µmol/kg, intra-arterial infusion; conditions: in vivo
[11] = Clearance in dog at 10 µmol/kg, intra-arterial infusion; conditions: in vivo
[12] = Terminal half life in rat at 10 µmol/kg, intra-arterial infusion; conditions: in vivo, read-out: beta t1/2 (converted)
[13] = Terminal half life in dog at 10 µmol/kg, intra-arterial infusion; conditions: in vivo, read-out: beta t1/2 (converted)
[14] = Volume of distribution at steady state in rat at 10 µmol/kg, intra-arterial infusion; conditions: in vivo, read-out: Vdss
[15] = Volume of distribution at steady state in dog at 10 µmol/kg, intra-arterial infusion; conditions: in vivo, read-out: Vdss

Sequence of Potassium voltage-gated channel subfamily A member 5 (P22460 whole entry): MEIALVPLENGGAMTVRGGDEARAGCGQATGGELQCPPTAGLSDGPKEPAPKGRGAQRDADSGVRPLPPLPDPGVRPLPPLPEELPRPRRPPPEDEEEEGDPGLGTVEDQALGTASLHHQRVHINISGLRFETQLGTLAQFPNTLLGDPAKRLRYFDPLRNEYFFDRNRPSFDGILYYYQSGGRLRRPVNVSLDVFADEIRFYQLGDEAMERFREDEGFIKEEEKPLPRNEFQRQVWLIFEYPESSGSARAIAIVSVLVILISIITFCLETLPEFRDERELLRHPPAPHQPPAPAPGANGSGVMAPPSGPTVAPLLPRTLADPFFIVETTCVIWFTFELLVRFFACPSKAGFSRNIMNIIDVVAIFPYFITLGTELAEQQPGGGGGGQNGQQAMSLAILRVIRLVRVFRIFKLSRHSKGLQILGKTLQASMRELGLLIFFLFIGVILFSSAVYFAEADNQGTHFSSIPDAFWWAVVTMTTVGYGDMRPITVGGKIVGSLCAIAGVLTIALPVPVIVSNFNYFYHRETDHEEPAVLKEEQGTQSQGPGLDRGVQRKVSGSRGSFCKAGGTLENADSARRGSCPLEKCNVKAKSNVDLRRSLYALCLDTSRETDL

Row | SMILES | IC50 [1] [nM] | inhibition [1] [%] | further results
1 | CC1=C(C(=O)N2CCC[C@H]2c2nc(C)no2)C(c2ccc(Cl)c(Cl)c2)n2nccc2N1 (stereo in doubt; 13b) | 160 |  | 
2 | COC[C@H]1CCCN1C(=O)C1=C(C)Nc2ccnn2C1c1ccc(Cl)c(Cl)c1 (some centres undefined) | > 1000 | 32 | 
3 | CC1=C(C(=O)N2CCCC2c2ccccc2)C(c2ccc(Cl)c(Cl)c2)n2nccc2N1 (centres undefined) | 150 |  | 
4 | CC1=C(C(=O)N2CCC[C@H]2c2nnc[nH]2)C(c2ccc(Cl)c(Cl)c2)n2nccc2N1 (stereo in doubt; 17a) [listing 1 of 2 here] |  | 19 | 
5 | CC1=C(C(=O)N2CCCC2c2ccncc2)C(c2ccc(Cl)c(Cl)c2)n2nccc2N1 (centres undefined) | 310 |  | 
6 | CC1=C(C(=O)N2CCC[C@H]2c2cc(C)no2)C(c2ccc(Cl)c(Cl)c2)n2nccc2N1 (stereo in doubt; 20a) [listing 1 of 2 here] |  | 21 | 
7 | CC1=C(C(=O)N2CCC[C@H]2c2nnn[nH]2)C(c2ccc(Cl)c(Cl)c2)n2nccc2N1 (stereo in doubt; 14a) [listing 1 of 2 here] | > 1000 |  | 
8 | CC1=C(C(=O)N2CCC[C@H]2c2nc(C)no2)C(c2ccc(Cl)c(Cl)c2)n2nccc2N1 (stereo in doubt; 13a) [listing 1 of 2 here] | > 1000 |  | 
9 | CC1=C(C(=O)N2CCCC2c2ccc(F)cc2)C(c2ccc(Cl)c(Cl)c2)n2nccc2N1 (mixture of isomers; 7a) | 2100 |  | 
10 | CC1=C(C(=O)N2CCCC2c2ccc(F)cc2)C(c2ccc(Cl)c(Cl)c2)n2nccc2N1 (mixture of isomers; 7b) | 1800 |  | 
11 | CC1=C(C(=O)N2CCCC2c2ccc(F)cc2)C(c2ccc(Cl)c(Cl)c2)n2nccc2N1 (mixture of isomers; 7) | 70 |  | 
12 | CC1=C(C(=O)N2CCC[C@H]2c2nnn[nH]2)C(c2ccc(Cl)c(Cl)c2)n2nccc2N1 (stereo in doubt; 14b) |  | 8 | 
13 | CC1=C(C(=O)N2CCC[C@H]2c2cc(C)on2)C(c2ccc(Cl)c(Cl)c2)n2nccc2N1 (stereo in doubt; 21a) [listing 1 of 2 here] | > 1000 |  | 
14 | CC1=C(C(=O)N2CCC[C@H]2c2nnn(C)n2)C(c2ccc(Cl)c(Cl)c2)n2nccc2N1 (some centres undefined) | 480 |  | 
15 | CC1=C(C(=O)N2CCC[C@H]2c2nnc[nH]2)C(c2ccc(Cl)c(Cl)c2)n2nccc2N1 (stereo in doubt; 17b) |  | 3 | 
16 | CC1=C(C(=O)N2CCC[C@H]2c2nnn[nH]2)C(c2ccc(Cl)c(Cl)c2)n2nccc2N1 (stereo in doubt; 14a) [listing 2 of 2 here] |  | 4 | 

Row | SMILES | IC50 [1] [nM] | inhibition [1] [%] | further results
17 | CC1=C(C(=O)N2CCC[C@H]2c2cc(C)on2)C(c2ccc(Cl)c(Cl)c2)n2nccc2N1 (stereo in doubt; 21a) [listing 2 of 2 here] |  | 38 | 
18 | CC1=C(C(=O)N2CCC[C@H]2c2nnc(N)s2)C(c2ccc(Cl)c(Cl)c2)n2nccc2N1 (some centres undefined) | > 1000 | 4 | 
19 | CC1=C(C(=O)N2CCCC2c2cccnc2)C(c2ccc(Cl)c(Cl)c2)n2nccc2N1 (centres undefined) | > 1000 | 35 | 
20 | CC1=C(C(=O)N2CCC(c3ccc(F)cc3)C2)C(c2ccc(Cl)c(Cl)c2)n2nccc2N1 (centres undefined) | 160 |  | 
21 | CC1=C(C(=O)N2CCC[C@H]2c2cc(C)no2)C(c2ccc(Cl)c(Cl)c2)n2nccc2N1 (stereo in doubt; 20a) [listing 2 of 2 here] | > 1000 |  | 
22 | CC1=C(C(=O)N2CCC[C@H]2c2cc(C)on2)C(c2ccc(Cl)c(Cl)c2)n2nccc2N1 (stereo in doubt; 21b) | 90 |  | 
23 | CC1=C(C(=O)N2CCC[C@H]2c2nc(C)c(C)s2)C(c2ccc(Cl)c(Cl)c2)n2nccc2N1 (some centres undefined) | 300 |  | 
24 | CC1=C(C(=O)N2CCC[C@H]2c2cc(C)no2)C(c2ccc(Cl)c(Cl)c2)n2nccc2N1 (stereo in doubt; 20b) | 110 |  | 
25 | CC1=C(C(=O)N2CCC[C@H]2c2n[nH]c(=O)n2C)C(c2ccc(Cl)c(Cl)c2)n2nccc2N1 (some centres undefined) | > 1000 | 11 | 
26 | CC1=C(C(=O)N2CCCC2c2ccc(F)cc2)C(c2ccc(Cl)c(Cl)c2)n2nccc2N1 (mixture of isomers; 7c) | 150 |  | 
27 | CC1=C(C(=O)N2CCC[C@H]2c2nc(C)no2)C(c2ccc(Cl)c(Cl)c2)n2nccc2N1 (stereo in doubt; 13a) [listing 2 of 2 here] |  | 22 | 
28 | CC1=C(C(=O)N2CCC[C@H]2c2ccc(F)cc2)[C@@H](c2ccc(Cl)c(Cl)c2)n2nccc2N1 [BMS-394136] | 50 |  | Activity [2]: 0.13%; Activity [3]: 0.37%; Activity [4]: 1.37%; Activity [5]: 6.95%; concentration [6]: 7 µM; fraction unbound [7]: 0.03; bioavailability [8]: 51%; bioavailability [9]: 37%; clearance [10]: 35 mL/min/kg; clearance [11]: 42 mL/min/kg; half-life [12]: 0.57 h; half-life [13]: 1.5 h; Vd [14]: 1.6 L/kg; Vd [15]: 2.1 L/kg
29 | COC(=O)[C@@H]1CCCN1C(=O)C1=C(C)Nc2ccnn2C1c1ccc(Cl)c(Cl)c1 (some centres undefined) | 150 |  | 
30 | CC1=C(C(=O)N2CCC[C@H]2c2nnc[nH]2)C(c2ccc(Cl)c(Cl)c2)n2nccc2N1 (stereo in doubt; 17a) [listing 2 of 2 here] | > 1000 |  | 
31 | CC1=C(C(=O)N2CCCC2c2ccccn2)C(c2ccc(Cl)c(Cl)c2)n2nccc2N1 (centres undefined) | 660 |  | 
